The values below come from patent US9464308B2, “Method for transcriptional amplification of nucleic acids combining steps of different temperatures” (priority 2011, dated 2016).

In assay [1] the target is T1, T7 RNA polymerase (Escherichia phage T7, UniProt P00573).
T1 construct: purchased bioMérieux, Marcy l'Etoile, France
The assay is described as follows: Thermostability (T1/2) at 46° C. of T7 RNA polymerase activity. The assay is classed as biochemical. The following applies: environment specific to NASBA, sorbitol 1.48 M. The protocol:
In this example, the values of T1/2 of T7 RNA polymerase are determined in the presence or absence of polyols. A description of the measurement method is given below, as are the various reagents used.
Mix buffers B, C and D according to the following proportions with the following Nuclisens™ HIV-1 2.0 reagents (ref.: 285033, bioMérieux, Marcy l'Etoile, France) (for eight reactions): • 36.08 μl buffer A • 6.32 μl buffer B • 25.36 μl buffer C • 173.6 μl buffer D • eight “Nuclisens™ HIV-1 2.0 accusphere reagent” • 960 μl of “Nuclisens™ HIV-1 2.0 diluent reagent”. […]
• 1. The enzymes to be evaluated are diluted in such a way as to have a volumetric activity of 109 kU/ml. • 2. A volume of 20 μl of the enzyme to be evaluated is diluted in 840 μl of solution W1. • 3. 114 μl of the compound to be evaluated are then added to 193.5 μl of enzymatic mix described in point 2 above. • 4. […] 20 μl of solution S are added to 5 n1 of this preincubated mixture in order to measure the rate of increase in fluorescence between 5 and 10 minutes, associated with the residual activity of the enzyme. • 6. […]

Assay [2] has as its target T1, T7 RNA polymerase. Briefly: Thermal denaturation of T7 RNA polymerase (T7 Tm) by UV spectrophotometry. The assay is classed as physicochemical. The protocol: T7 RNA polymerase was chosen as model enzyme since it is the most sensitive to thermal denaturation; the T7 Tm without additive is 48.5° C.
A UV spectrophotometry technique is used to measure the T7 Tm values. The change in the absorbance of the protein at λ=280 nm as a function of temperature is measured. When the enzyme is heated, the solution becomes cloudy, and aggregates form which correspond to the denatured form. The Tm corresponds to the temperature for which there is 50% of native form and 50% of denatured form (first derivative of the curve absorbance=f(temperature)).
In a polypropylene flask, 4 ml of 300 mM PBS phosphate buffer (Aldrich P-4417, St Quentin Fallavier, France) are mixed with 12μl of T7 RNA polymerase enzyme (bioMérieux, Marcy l'Etoile, France) at 17 mg/ml, i.e. a final protein concentration of 0.05 mg/ml. 500 μl of T7 RNA polymerase solution at 0.05 mg/ml and 500 μl of a concentrated solution of additives (Aldrich, St Quentin Fallavier, France) or of 300 mM PBS for the control are then placed in a quartz cuvette for UV spectrophotometry. After homogenization, the change in absorbance at λ=280 nm is measured as a function of temperature, between 30 and 65° C. at 1° C./min, in order to determine the T7 Tm as previously described (Cary UV spectrophotometer, Varian, Les Ulis, France).

Assay [3] deals with T1, T7 RNA polymerase. Briefly: Maximum preincubation temperature preserving T7 RNA polymerase activity (3 min preincubation). The assay is classed as biochemical. The following applies: 1.4 M sorbitol. The protocol: FIG. 2 describes the residual activity (%) of T7 RNA polymerase after 3 minutes of preincubation at various temperatures and in the presence of various thermostabilizing compounds.
In this example, the maximum temperature that the T7 RNA polymerase could withstand for a preincubation of 3 minutes in the presence of thermostabilizing compounds is determined.
This step can be likened to a target predenaturation or preincubation phase. The protocol used in this example is similar to that of example 2, with the exception of the fact that the temperatures are variable and that the preincubation time was fixed at 3 minutes.

The test system of assay [4] is HIV-1 type B transcript. Briefly: Sensitivity of NASBA detection at 46° C. without target denaturation phase. The assay is classed as biochemical. The following applies: HIV-1 type B transcript at 5 cps/test, no target denaturation phase, N=24. An excerpt: FIG. 4 gives the measurement of the sensitivity (%) obtained in the presence of various thermostabilizing compounds during an HIV-1 type B NASBA amplification at 5 cps/test and without target denaturation phase (N=24).
The objective of this is to simplify the method by virtue of the simultaneous addition of the targets to the enzyme and amplification reagent mixes.
A Nuclisens™ HIV-1 2.0 amplification kit (ref.: 285033, bioMérieux, Marcy l'Etoile, France) was used to carry out the amplification experiments in the presence of trehalose, sucrose or sorbitol at the detection limit with an HIV-1 type B transcript at 5 cps/test. Each amplification is replicated 24 times in order to estimate the sensitivity of the test in the presence of thermostabilizing compounds at 46° C.
The sensitivity is expressed as percentage of positive signals determined by the EasyQ™ analysis system, relative to the total number of replicates.

The test system of assay [5] is HIV-1 type B transcript. Briefly: NASBA HIV-1 2.0 amplification test at 46° C., functional screening of thermostabilizing compounds. The assay is classed as biochemical. The following applies: 7.5 cps/reaction HIV-1B transcript, lactose 0.21 M, sorbitol 1.2 M, sucrose 0.6 M. The protocol: The FIG. 1 represent the functional screening of thermostabilizing compounds during NASBA amplifications at 46° C. in the presence of 7.5 cps/reaction of HIV-1B transcript (seven replicas per screening), with in:
A set of compounds with thermostabilizing properties or assumed to have such properties was evaluated in a NASBA HIV-1 2.0 amplification test on a Nuclisens EasyQ™ amplification platform (bioMérieux, Marcy l'Etoile, France) according to the supplier's recommendations. 5 cps to 30 cps of an HIV-1 type B transcript were used as target in each reaction in the presence or absence of the compound to be evaluated.
The obtaining of an amplification in the presence of the compound at a temperature of 46° C. makes it possible to validate the compound as compatible and thermostabilizing for the NASBA reaction.

T1 sequence (P00573 whole entry): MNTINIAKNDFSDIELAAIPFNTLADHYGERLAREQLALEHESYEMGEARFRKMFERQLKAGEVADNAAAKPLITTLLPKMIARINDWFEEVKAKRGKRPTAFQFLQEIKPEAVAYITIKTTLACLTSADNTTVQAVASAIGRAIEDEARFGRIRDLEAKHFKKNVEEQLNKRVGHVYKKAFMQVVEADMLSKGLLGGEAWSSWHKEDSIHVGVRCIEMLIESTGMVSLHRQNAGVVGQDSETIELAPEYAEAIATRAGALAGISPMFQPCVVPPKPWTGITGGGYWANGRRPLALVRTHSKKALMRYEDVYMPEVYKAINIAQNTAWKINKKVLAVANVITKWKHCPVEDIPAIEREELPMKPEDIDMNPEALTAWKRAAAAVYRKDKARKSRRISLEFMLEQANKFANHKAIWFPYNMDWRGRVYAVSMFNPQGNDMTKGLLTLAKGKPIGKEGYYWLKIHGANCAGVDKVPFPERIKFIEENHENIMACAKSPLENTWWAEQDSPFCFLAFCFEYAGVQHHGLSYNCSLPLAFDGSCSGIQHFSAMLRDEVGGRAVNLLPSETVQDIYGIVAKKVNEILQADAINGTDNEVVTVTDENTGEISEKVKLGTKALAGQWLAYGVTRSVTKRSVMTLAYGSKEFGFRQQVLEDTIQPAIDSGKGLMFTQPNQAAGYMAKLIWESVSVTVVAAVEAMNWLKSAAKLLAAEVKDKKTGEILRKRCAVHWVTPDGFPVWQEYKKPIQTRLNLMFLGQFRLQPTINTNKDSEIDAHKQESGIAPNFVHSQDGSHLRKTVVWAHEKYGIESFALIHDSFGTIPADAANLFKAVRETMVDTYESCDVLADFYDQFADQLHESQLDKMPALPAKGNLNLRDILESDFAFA

`OC[C@@H](O)[C@@H](O)[C@H](O)[C@@H](O)CO` [Sorbitol, sorbitol]: the “thermostabilizing effect on the T7 RNA polymerase activity (in words)” value on T7 RNA polymerase [1] was “greatest thermostabilizing effect”. The ΔTm at T7 RNA polymerase [2] (T7 RNA polymerase at 0.05 mg/ml, PBS 150 mM pH 7.5, versus control without additive (T7 Tm 48.5° C.), Sorbitol 1M, Sucrose 1M, Lactose 0.35M, Raffmose 0.085M, D-Turanose 0.15M, read-out: ΔTm) turned out to be 0.9 °C. Also, the “denaturation temperature of the enzyme (in words)” value on T7 RNA polymerase [2] (heating T7 RNA polymerase in the presence of the additive) was “very significantly increase the denaturation temperature of the enzyme”. Moreover, the “T7 RNA polymerase activity preserved” value is 100% on T7 RNA polymerase [3] (3 minutes at 48° C., 0.7 M sucrose, 0.4 M trehalose) and 100% at T7 RNA polymerase [3] (3 minutes at 49° C.). The “sensitivity (percentage of positive signals relative to total replicates)” value in the assay with HIV-1 type B transcript [4] is 100%. Moreover, the “NASBA amplification at 46° C. (positive signals out of seven replicas)” value in the assay on HIV-1 type B transcript [5] is listed as “at least four positive signals out of seven replicas”.

For orientation: ΔTm means the change in melting temperature against a reference sample.
